These results are taken from patent US6407248B1, “α-unsaturated amines, their production and use” (Takeda Chemical Industries, Ltd., priority 1987, dated 2002).

One assay relates to Brown Planthoppers (Nilaparvata lugens). The experiment in a line: Effect against brown planthoppers (foliar spray on rice seedlings). As to conditions: Nilaparvata lugens, foliar, 168 h, read-out: % Mortality after 7 days. It counts as in vivo. On the procedure:
Effect Against Brown Planthoppers (Nilaparvata lugens)
An emulsifiable concentrate of the compound of the invention, prepared in the same manner as Example 112 below, was diluted with water to a concentration of 500 ppm and sprayed over the stems and leaves of rice seedlings in the 2-leaf stage at the rate of 10 ml per paper pot. Water was put in test tubes and the treated rice seedlings were placed therein. Then, 10 brown planthopper larvae were released in each tube, which was then capped with an aluminum cap. The test tubes were maintained in an incubator at 25° C. and the dead insects were counted 7 days after release. The % mortality was calculated using the following formula. [formula]
On to `CCCN(Cc1ccc(Cl)nc1)C(N)=C[N+](=O)[O-]` [Compound 75, 1-Amino-1-[N-(6-chloro-3-pyridylmethyl)-N-n-propyl]-amino-2-nitroethylene], for which the mortality (usually the percentage killed) at 500 µg/mL came out at 100%.
With `CCCN(Cc1ccc(Cl)nc1)C(=C[N+](=O)[O-])NC` [Compound 76, 1-[N-(6-Chloro-3-pyridylmethyl)-N-n-propyl]amino-1-methylamino-2-nitroethylene], the mortality at 500 µg/mL amounted to 100%.
With `CCNC(=C[N+](=O)[O-])N(C)Cc1ccc(Cl)nc1` [Compound 80, 1-[N-(6-Chloro-3-pyridylmethyl)-N-methyl]amino-1-ethylamino-2-nitroethylene], the mortality at 500 µg/mL came out at 100%.
`O=[N+]([O-])C=C(NCc1ccc(Cl)nc1)NCc1ccc(Cl)nc1` [Compound 89, 1,1-bis(6-Chloro-3-pyridylmethyl)amino-2-nitro-ethylene]: the mortality at 500 µg/mL came to 100%.
`CNC(=C[N+](=O)[O-])N(C)Cc1ccc(C)nc1` [Compound 97, 1-Methylamino-1-[N-methyl-N-(6-methyl-3-pyridyl-methyl)]amino-2-nitroethylene]: the mortality at 500 µg/mL was found to be 100%.
With `CNC(=C[N+](=O)[O-])N(C)Cc1ccc(F)nc1` [Compound 98], the mortality at 500 µg/mL came to 100%.
Turning to `CCN(Cc1ccc(F)nc1)C(=C[N+](=O)[O-])NC` [Compound 99, 1-[N-Ethyl-N-(6-fluoro-3-pyridylmethyl)]amino-1-methylamino-2-nitroethylene], the mortality at 500 µg/mL is 100%.
For `CNC(=C[N+](=O)[O-])N(C)Cc1ccc(Br)nc1` [Compound 100, 1-[N-(6-Bromo-3-pyridylmethyl)-N-methyl]amino-1-methylamino-2-nitroethylene], the mortality at 500 µg/mL was 100%.
Regarding `CCN(Cc1ccc(Br)nc1)C(=C[N+](=O)[O-])NC` [Compound 101, 1-[N-(6-Bromo-3-pyridylmethyl)-N-ethyl]amino-1-methylamino-2-nitroethylene], the mortality at 500 µg/mL is 100%.
The same measure, in the same setting: then `CNC(=C[N+](=O)[O-])N(C)Cc1cnc(Cl)s1` [Compound 102, 1-[N-(2-Chloro-5-thiazolylmethyl)-N-methyl]amino-1-methylamino-2-nitroethylene], with 100%; and `CCN(Cc1cnc(Cl)s1)C(=C[N+](=O)[O-])NC` [Compound 103, 1-[N-(2-Chloro-5-thiazolylmethyl)-N-ethyl]amino-1-methylamino-2-nitroethylene], with 100%.
As for `CN(C)C(=C[N+](=O)[O-])NCc1cnc(Cl)s1` [Compound 104, 1-(2-Chloro-5-thiazolylmethyl)amino-1-dimethyl-amino-2-nitroethylene], the mortality at 500 µg/mL came out at 100%.
For `O=[N+]([O-])C=C(NCc1cnc(Cl)s1)NCc1cnc(Cl)s1` [Compound 105, 1,1-bis(2-chloro-5-thiazolylmethyl)amino-2-nitroethylene], the mortality at 500 µg/mL turned out to be 100%.
Regarding `CNC(=C[N+](=O)[O-])NCc1cnc(Cl)s1` [Compound 106, 1-(2-Chloro-5-thiazolylmethyl)amino-1-methylamino-2-nitroethylene], the mortality at 500 µg/mL amounted to 100%.
Turning to `CN(C=O)C(=C[N+](=O)[O-])N(C)Cc1ccc(Cl)nc1` [Compound 110, 1-[N-(6-Chloro-3-pyridylmethyl)-N-methyl]amino-1-(N-formyl-N-methyl)amino-2-nitroethylene], the mortality at 500 µg/mL is 100%.
Turning to `CCN(Cc1ccc(Cl)nc1)C(=C[N+](=O)[O-])N(C)C=O` [Compound 111, 1-[N-(6-Chloro-3-pyridylmethyl)-N-ethyl]amino-1-(N-formyl-N-methyl)amino-2-nitroethylene], the mortality at 500 µg/mL is 100%.
As to `CN(C)C(=C[N+](=O)[O-])N(C=O)Cc1ccc(Cl)nc1` [Compound 113, 1-[N-(6-Chloro-3-pyridylmethyl)-N-formyl]amino-1-dimethylamino-2-nitroethylene], the mortality at 500 µg/mL amounted to 100%.
In the case of `CCOC(=O)C(=C(NC)NCc1ccc(Cl)nc1)[N+](=O)[O-]` [Compound 116, 1-(6-Chloro-3-pyridylmethyl)amino-1-methylamino-2-ethoxycarbonyl-2-nitroethylene], the mortality at 500 µg/mL was determined as 100%.
In the case of `CNC(NCc1ccc(Cl)nc1)=C(C(=S)NS(C)(=O)=O)[N+](=O)[O-]` [Compound 117], the mortality at 500 µg/mL turned out to be 100%.
As for `CNC(=C[N+](=O)[O-])NCc1ccc(Br)nc1` [Compound 118, 1-N-(6-Bromo-3-pyridylmethyl)amino-1-methylamino-2-nitroetylene], the mortality at 500 µg/mL was found to be 100%.
Turning to `CN(C=O)C(=C[N+](=O)[O-])N(C)Cc1cnc(Cl)s1` [Compound 121, 1-[N-(2-Chloro-5-thiazolylmethyl)-N-methyl)amino-1-(N-formyl-N-methyl)amino-2-nitroethylene], the mortality at 500 µg/mL is 100%.

Staying with this assay, now noted: Nilaparvata lugens, foliar, 168 h; emulsifiable concentrate diluted with water to 500 ppm, sprayed on rice seedlings (2-leaf stage), 10 ml per paper pot; 10 larvae per tube; 25° C.; dead insects counted 7 days after release; read-out: % Mortality after 7 days.
In the case of `CNC(=C[N+](=O)[O-])N(C)Cc1ccc(Cl)cc1` [Compound 68, 1-[N-(4-Chlorobenzyl)-N-methyl]amino-1-methylamino-2-nitroethylene], the mortality at 500 µg/mL is 100%.
On to `CNC(=C[N+](=O)[O-])NCc1ccc(Cl)cc1` [Compound 70, 1-(4-Chlorobenzyl)amino-1-methylamino-2-nitroethylene], for which the mortality at 500 µg/mL was found to be 100%.
The same measure, in the same setting: then `CN(C)C(=C[N+](=O)[O-])NCc1ccc(Cl)cc1` [Compound 71, 1-(4-Chlorobenzyl)amino-1-dimethylamirxo-2-nitroethylene], with 100%; and `CN(C)C(=C[N+](=O)[O-])N(C=O)Cc1cccnc1` [Compound 72, 1-Dimethylamino-1-[N-formyl-N-(3-pyridylmethyl)]-amino-2-nitroethylene], with 100%; and `CNC(=C[N+](=O)[O-])N(C)Cc1cnccn1` [Compound 73, 1-Methylamino-1-[N-methyl-N-(2-pyrazinyl)methyl]amino-2-nitroethylene], with 100%.
Turning to `CNC(=C[N+](=O)[O-])N(C)c1ccc(Cl)nc1` [Compound 78, 1-[N-(6-Chloro-3-pyridyl)-N-methyl]amino-1-methyl-amino-2-nitroethylene], the mortality at 500 µg/mL was determined as 100%.
As to `CNC(=C[N+](=O)[O-])N(C)c1cccnc1` [Compound 79, 1-Methylamino-1-[N-methyl-N-(3-pyridyl)]amino-2-nitroethylene], the mortality at 500 µg/mL came to 100%.
`CNC(=C[N+](=O)[O-])N(C)c1ccc(C)nc1` [Compound 84, 1-Methylamino-1-[N-methyl-N-(6-methyl-3-pyridyl)]-amino-2-nitroethylene]: the mortality at 500 µg/mL worked out at 100%.
For `CCNC(=C[N+](=O)[O-])N(C)c1ccc(Cl)nc1` [Compound 85, 1-[N-(6-chloro-3-pyridyl)-N-methyl]amino-1-ethyl-amino-2-nitroethylene], the mortality at 500 µg/mL was 100%.
Turning to `CNC(=C[N+](=O)[O-])N(C)Cc1cncc(Br)c1` [Compound 86, 1-[N-(5-Bromo-3-pyridylmethyl)-N-methyl]amino-1-methylamino-2-nitroethylene], the mortality at 500 µg/mL came out at 100%.
`CNC(=C[N+](=O)[O-])N(C)Cc1cscn1` [Compound 88, 1-Methylamino-1-[N-methyl-N-(4-thiazolyl)methyl]-amino-2-nitroethylene]: the mortality at 500 µg/mL was 100%.
The same measure, in the same setting: next, `CCN(C(=C[N+](=O)[O-])NC)c1ccc(Cl)nc1` [Compound 90, 1-[N-(6-Chloro-3-pyridyl)-N-ethyl]amino-1-methyl-amino-2-nitroethylene]: 100%.
As to `CCCN(C(=C[N+](=O)[O-])NC)c1ccc(Cl)nc1` [Compound 91, 1-[N-(6-Chloro-3-pyridyl)-N-n-propyl]amino-1-methyl-amino-2-nitroethylene], the mortality at 500 µg/mL worked out at 100%.
The same measure, in the same setting: then `CCCCN(C(=C[N+](=O)[O-])NC)c1ccc(Cl)nc1` [Compound 92, 1-[N-n-Butyl-N-(6-chloro-3-pyridyl)]amino-1-methyl-amino-2-nitroethylene], with 100%; and `CCNC(=C[N+](=O)[O-])N(CC)c1ccc(Cl)nc1` [Compound 93, 1-[N-(6-Chloro-3-pyridyl)-N-ethyl]amino-1-ethyl-amino-2-nitroethylene], with 100%; and `CCCNC(=C[N+](=O)[O-])N(C)c1ccc(Cl)nc1` [Compound 95, 1-[N-(6-Chloro-3-pyridyl)-N-methyl]amino-1-n-propyl-amino-2-nitroethylene], with 100%.
In the case of `CNC(=C[N+](=O)[O-])Nc1ccc(Cl)nc1` [Compound 96, 1-(6-Chloro-3-pyridyl)amino-1-methylamino-2-nitro-ethylene], the mortality at 500 µg/mL turned out to be 100%.
Turning to `CN(C)C(=C[N+](=O)[O-])Nc1ccc(Cl)nc1` [Compound 107, 1-(6-Chloro-3-pyridyl)amino-1-dimethylamino-2-nitrothylene], the mortality at 500 µg/mL is 100%.
`CNC(=C[N+](=O)[O-])N(C)c1ccc(OC)nc1` [Compound 108, 1-[N-(6-Methoxy-3-pyridyl)-N-methyl]amino-1-1-methyl-amino-2-nitroethylene]: the mortality at 500 µg/mL worked out at 100%.
For the compound `CCOC(=O)C(=C(NC)N(C)c1ccc(Cl)nc1)[N+](=O)[O-]` [Compound 109, 1-[N-(6-Chloro-3-pyridyl)-N-methyl]amino-1-methylamino-2-ethoxycarbonyl-2-nitroethylene], the mortality at 500 µg/mL was 100%.
On to `CN(C=O)C(=C[N+](=O)[O-])N(C)c1ccc(Cl)nc1` [Compound 112, 1[N-(6-Chloro-3-pyridyl)-N-methyl]amino-1-(N-formyl-N-methyl)amino-2-nitroethylene], for which the mortality at 500 µg/mL was 100%.
